According to US9163256B2, “Mutant receptors and their use in a nuclear receptor-based inducible gene expression system” (priority 2004, dated 2015):

Assays:
CfEcR-DEF mutant T52W = CfEcR-DEF mutant T52W (Choristoneura fumiferana, UniProt O77255, T335W); test: GAL4-driven luciferase reporter assay in NIH3T3 cells; type: cell-based
Method in brief: (§1)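 Mutant CfEcR-DEF receptor and GAL4-driven luciferase reporter constructs transfected into mouse NIH3T3 cells with DMSO or ligand added; maintained 48 h at 37° C in 5% FBS, harvested 40 h after ligand addition. Dual-luciferase read-out; fold induction = RLU with ligand / RLU with DMSO.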

CfEcR-DEF mutant M219W = CfEcR-DEF mutant M219W (Choristoneura fumiferana, UniProt O77255, M502W); test: as above; type: cell-based
Method in brief: as §1

CfEcR-DEF mutant L223K = CfEcR-DEF mutant L223K (Choristoneura fumiferana, UniProt O77255, L506K); test: as above; type: cell-based
Method in brief: as §1

CfEcR-DEF mutant T52R = CfEcR-DEF mutant T52R (Choristoneura fumiferana, UniProt O77255, T335R); test: as above; type: cell-based
Method in brief: as §1

CfEcR-DEF mutant M125V = CfEcR-DEF mutant M125V (Choristoneura fumiferana, UniProt O77255, M408V); test: as above; type: cell-based
Method in brief: as §1

CfEcR-DEF mutant L234W = CfEcR-DEF mutant L234W (Choristoneura fumiferana, UniProt O77255, L517W); test: as above; type: cell-based
Method in brief: as §1

CfEcR-DEF mutant F48R = CfEcR-DEF mutant F48R (Choristoneura fumiferana, UniProt O77255, F331R); test: as above; type: cell-based
Method in brief: as §1

CfEcR-DEF mutant I51M = CfEcR-DEF mutant I51M (Choristoneura fumiferana, UniProt O77255, I334M); test: as above; type: cell-based
Method in brief: as §1

CfEcR-DEF mutant L223Y = CfEcR-DEF mutant L223Y (Choristoneura fumiferana, UniProt O77255, L506Y); test: as above; type: cell-based
Method in brief: as §1

CfEcR-DEF mutant L234R = CfEcR-DEF mutant L234R (Choristoneura fumiferana, UniProt O77255, L517R); test: as above; type: cell-based
Method in brief: as §1

CfEcR-DEF mutant W238L = CfEcR-DEF mutant W238L (Choristoneura fumiferana, UniProt O77255, W521L); test: as above; type: cell-based
Method in brief: as §1

CfEcR-DEF mutant M125I = CfEcR-DEF mutant M125I (Choristoneura fumiferana, UniProt O77255, M408I); test: as above; type: cell-based
Method in brief: as §1

CfEcR-DEF mutant L132E = CfEcR-DEF mutant L132E (Choristoneura fumiferana, UniProt O77255, L415E); test: as above; type: cell-based
Method in brief: as §1

CfEcR-DEF mutant T52Q = CfEcR-DEF mutant T52Q (Choristoneura fumiferana, UniProt O77255, T335Q); test: as above; type: cell-based
Method in brief: as §1

CfEcR-DEF mutant F48K = CfEcR-DEF mutant F48K (Choristoneura fumiferana, UniProt O77255, F331K); test: as above; type: cell-based
Method in brief: as §1

CfEcR-DEF mutant T52M = CfEcR-DEF mutant T52M (Choristoneura fumiferana, UniProt O77255, T335M); test: as above; type: cell-based
Method in brief: as §1

CfEcR-DEF mutant W238M = CfEcR-DEF mutant W238M (Choristoneura fumiferana, UniProt O77255, W521M); test: as above; type: cell-based
Method in brief: as §1

CfEcR-DEF mutant M219K = CfEcR-DEF mutant M219K (Choristoneura fumiferana, UniProt O77255, M502K); test: as above; type: cell-based
Method in brief: as §1

CfEcR-DEF mutant L223R = CfEcR-DEF mutant L223R (Choristoneura fumiferana, UniProt O77255, L506R); test: as above; type: cell-based
Method in brief: as §1

CfEcR-DEF mutant F109P = test: as above; type: cell-based, Choristoneura fumiferana
Description: (§2) This construct was prepared in the same way as in switch 1.1 above except wild-type CfEcR-DEF was replaced with mutant CfEcR-DEF comprising a ligand binding domain comprising a substitution mutation selected from Table 1 below.
(§3) DNAs were transfected into mouse NIH3T3 cells (ATCC) as follows. Standard methods for culture and maintenance of the cells were followed. Cells were harvested and plated 96-well plates at 2,500 cells per well, in 50 μL of growth medium containing 10% fetal bovine serum (FBS). Twenty-four hours later, the cells were treated with 35 μL of serum-free growth medium containing either dimethylsulfoxide (DMSO; control) or a DMSO solution of ligand. The cells were then transfected using Superfect (Qiagen Inc.) transfection reagent. For each well, 0.625 μL of Superfect was mixed with 14.2 μL of serum-free growth medium. 0.16 μg of reporter construct and 0.04 μg of each receptor construct were added to the transfection reagent mix. The contents of the transfection mix were mixed in a vortex mixer and let stand at room temperature for 30 minutes. At the end of incubation, 15 μL of transfection mix was added to the cells. The cells were maintained at 37° C. and 5% CO2 for 48 hours in 5% FBS.
(§4) Reporter Assays: Cells were harvested 40 hours after adding ligands. 125 μL of passive lysis buffer (part of Dual-Luciferase reporter assay system from Promega Corporation) were added to each well of the […] plate. The plates were placed on a rotary shaker for 15 minutes. Twenty μL of lysate were assayed. Luciferase activity was measured using Dual-Luciferase reporter assay system from Promega Corporation following the manufacturer's instructions. Fold induction (FI) activities were calculated by dividing relative light units (“RLU”) in ligand treated cells with RLU in DMSO treated cells (untreated control).

CfEcR-DEF mutant I51N = test: as above; type: cell-based, Choristoneura fumiferana
Description: as §2, §3, §4

CfEcR-DEF mutant L132N = test: as above; type: cell-based, Choristoneura fumiferana
Description: as §2, §3, §4

[1] = NIH3T3, 40 h, read-out: Rel Max FI
[2] = NIH3T3, 40 h, read-out: Rel MaxFI

Chain of CfEcR-DEF mutant L223R (O77255 entry or part of it L506R): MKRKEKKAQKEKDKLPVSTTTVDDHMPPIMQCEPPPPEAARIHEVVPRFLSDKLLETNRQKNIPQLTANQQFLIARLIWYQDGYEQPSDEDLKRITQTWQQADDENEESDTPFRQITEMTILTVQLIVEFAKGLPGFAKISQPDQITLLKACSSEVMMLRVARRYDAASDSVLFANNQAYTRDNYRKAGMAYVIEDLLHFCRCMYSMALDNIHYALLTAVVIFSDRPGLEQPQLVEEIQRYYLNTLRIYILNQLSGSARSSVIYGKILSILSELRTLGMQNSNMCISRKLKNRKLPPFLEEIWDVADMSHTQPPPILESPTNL
Chain of CfEcR-DEF mutant L223R (P28702 299-449, further chain): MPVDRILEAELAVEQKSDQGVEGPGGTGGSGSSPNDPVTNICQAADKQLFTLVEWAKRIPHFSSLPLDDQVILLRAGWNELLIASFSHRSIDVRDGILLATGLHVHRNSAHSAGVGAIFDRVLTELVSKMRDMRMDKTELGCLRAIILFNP
Chain of CfEcR-DEF mutant L223K (P28702 298-449): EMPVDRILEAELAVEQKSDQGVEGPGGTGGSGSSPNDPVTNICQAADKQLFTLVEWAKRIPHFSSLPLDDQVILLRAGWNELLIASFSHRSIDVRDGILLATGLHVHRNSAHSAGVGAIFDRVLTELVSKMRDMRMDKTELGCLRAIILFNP
Chain of CfEcR-DEF mutant L223K (O77255 entry or part of it L506K): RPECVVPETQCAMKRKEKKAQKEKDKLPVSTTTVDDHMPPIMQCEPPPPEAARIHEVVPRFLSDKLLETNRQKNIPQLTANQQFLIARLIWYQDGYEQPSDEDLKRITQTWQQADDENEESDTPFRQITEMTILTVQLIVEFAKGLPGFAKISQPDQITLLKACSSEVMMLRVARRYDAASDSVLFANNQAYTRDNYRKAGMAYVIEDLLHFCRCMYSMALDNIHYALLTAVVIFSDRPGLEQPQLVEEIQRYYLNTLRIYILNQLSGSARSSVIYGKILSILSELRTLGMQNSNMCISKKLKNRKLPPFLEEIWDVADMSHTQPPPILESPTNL
Chain of CfEcR-DEF mutant M125I (O77255 entry or part of it M408I): as the sequence (O77255 entry or part of it L506K) above, with M202I, K300L counted along it
Chain of CfEcR-DEF mutant M125I (P28702 299-449, further chain): as the sequence (P28702 299-449, further chain) above
Chain of CfEcR-DEF mutant W238M (P28702 299-449): as the sequence (P28702 299-449, further chain) above
Chain of CfEcR-DEF mutant W238M (O77255 entry or part of it W521M): as the sequence (O77255 entry or part of it L506K) above, with K300L, W315M counted along it
Chain of CfEcR-DEF mutant T52Q (P28702 299-449): as the sequence (P28702 299-449, further chain) above
Chain of CfEcR-DEF mutant T52Q (O77255 entry or part of it T335Q): as the sequence (O77255 entry or part of it L506R) above, with T117Q, R288L counted along it
Chain of CfEcR-DEF mutant M219W (P28702 299-449): as the sequence (P28702 299-449, further chain) above
Chain of CfEcR-DEF mutant M219W (O77255 entry or part of it M502W): as the sequence (O77255 entry or part of it L506K) above, with M296W, K300L counted along it
Chain of CfEcR-DEF mutant L223Y (P28702 299-449): as the sequence (P28702 299-449, further chain) above
Chain of CfEcR-DEF mutant L223Y (O77255 entry or part of it L506Y): as the sequence (O77255 entry or part of it L506R) above, with R288Y counted along it
Chain of CfEcR-DEF mutant M219K (P28702 299-449): as the sequence (P28702 299-449, further chain) above
Chain of CfEcR-DEF mutant M219K (O77255 entry or part of it M502K): as the sequence (O77255 entry or part of it L506K) above, with M296K, K300L counted along it
Chain of CfEcR-DEF mutant I51M (P28702 299-449): as the sequence (P28702 299-449, further chain) above
Chain of CfEcR-DEF mutant I51M (O77255 entry or part of it I334M): as the sequence (O77255 entry or part of it L506K) above, with I128M, K300L counted along it
Chain of CfEcR-DEF mutant W238L (P28702 299-449): as the sequence (P28702 299-449, further chain) above
Chain of CfEcR-DEF mutant W238L (O77255 entry or part of it W521L): as the sequence (O77255 entry or part of it L506K) above, with K300L, W315L counted along it
Chain of CfEcR-DEF mutant L234W (O77255 entry or part of it L517W): as the sequence (O77255 entry or part of it L506K) above, with K300L, L311W counted along it
Chain of CfEcR-DEF mutant L234W (P28702 299-449, further chain): as the sequence (P28702 299-449, further chain) above
Chain of CfEcR-DEF mutant T52W (O77255 entry or part of it T335W): as the sequence (O77255 entry or part of it L506R) above, with T117W, R288L counted along it
Chain of CfEcR-DEF mutant T52W (P28702 299-449, further chain): as the sequence (P28702 299-449, further chain) above
Chain of CfEcR-DEF mutant L132E (O77255 entry or part of it L415E): as the sequence (O77255 entry or part of it L506K) above, with L209E, K300L counted along it
Chain of CfEcR-DEF mutant L132E (P28702 298-449, further chain): as the sequence (P28702 298-449) above
Chain of CfEcR-DEF mutant T52M (O77255 entry or part of it T335M): as the sequence (O77255 entry or part of it L506K) above, with T129M, K300L counted along it
Chain of CfEcR-DEF mutant T52M (P28702 298-449, further chain): as the sequence (P28702 298-449) above
Chain of CfEcR-DEF mutant F48R (O77255 entry or part of it F331R): as the sequence (O77255 entry or part of it L506K) above, with F125R, K300L counted along it
Chain of CfEcR-DEF mutant F48R (P28702 299-449, further chain): as the sequence (P28702 299-449, further chain) above
Chain of CfEcR-DEF mutant F48K (O77255 entry or part of it F331K): as the sequence (O77255 entry or part of it L506R) above, with F113K, R288L counted along it
Chain of CfEcR-DEF mutant F48K (P28702 299-449, further chain): as the sequence (P28702 299-449, further chain) above
Chain of CfEcR-DEF mutant T52R (O77255 entry or part of it T335R): as the sequence (O77255 entry or part of it L506R) above, with T117R, R288L counted along it
Chain of CfEcR-DEF mutant T52R (P28702 299-449, further chain): as the sequence (P28702 299-449, further chain) above
Chain of CfEcR-DEF mutant M125V (O77255 entry or part of it M408V): as the sequence (O77255 entry or part of it L506R) above, with M190V, R288L counted along it
Chain of CfEcR-DEF mutant M125V (P28702 299-449, further chain): as the sequence (P28702 299-449, further chain) above
Chain of CfEcR-DEF mutant L234R (O77255 entry or part of it L517R): as the sequence (O77255 entry or part of it L506K) above, with K300L, L311R counted along it
Chain of CfEcR-DEF mutant L234R (P28702 299-449, further chain): as the sequence (P28702 299-449, further chain) above

CCc1c(OC)cccc1C(=O)NN(C(=O)c1cc(C)cc(C)c1)C(C)(C)C [RG-102240, N-(2-ethyl-3-methoxybenzoyl)-N′-(3,5-dimethylbenzoyl)-N′-tert-butylhydrazine]
EC50 (CfEcR-DEF mutant T52W): 18.3 µM
Emax (CfEcR-DEF mutant T52W; [1]): 100%
EC50 (CfEcR-DEF mutant M219W): 3.35 µM
Emax (CfEcR-DEF mutant M219W; [1]): 100%
EC50 (CfEcR-DEF mutant L223K): 3.93 µM
Emax (CfEcR-DEF mutant L223K; [1]): 100%
EC50 (CfEcR-DEF mutant T52R): 6.69 µM
Emax (CfEcR-DEF mutant T52R; [1]): 100%
EC50 (CfEcR-DEF mutant M125V): 1.64 µM
Emax (CfEcR-DEF mutant M125V; [1]): 100%
EC50 (CfEcR-DEF mutant L234W): 11.5 µM
Emax (CfEcR-DEF mutant L234W; [1]): 100%
EC50 (CfEcR-DEF mutant F48R): 7.23 µM
Emax (CfEcR-DEF mutant F48R; [1]): 100%
EC50 (CfEcR-DEF mutant I51M): 3.94 µM
Emax (CfEcR-DEF mutant I51M; [1]): 100%
EC50 (CfEcR-DEF mutant L223Y): 3.15 µM
Emax (CfEcR-DEF mutant L223Y; [1]): 100%
EC50 (CfEcR-DEF mutant L234R): 17.1 µM
Emax (CfEcR-DEF mutant L234R; [1]): 100%
EC50 (CfEcR-DEF mutant W238L): 11.1 µM
Emax (CfEcR-DEF mutant W238L; [1]): 100%
EC50 (CfEcR-DEF mutant M125I): 1.36 µM
Emax (CfEcR-DEF mutant M125I; [1]): 100%
EC50 (CfEcR-DEF mutant L132E): 0.41 µM
Emax (CfEcR-DEF mutant L132E; [1]): 100%
EC50 (CfEcR-DEF mutant T52Q): 2.95 µM
Emax (CfEcR-DEF mutant T52Q; [1]): 100%
EC50 (CfEcR-DEF mutant F48K): 11.1 µM
Emax (CfEcR-DEF mutant F48K; [1]): 100%
EC50 (CfEcR-DEF mutant T52M): 6.74 µM
Emax (CfEcR-DEF mutant T52M; [2]): 100%
EC50 (CfEcR-DEF mutant W238M): 10.5 µM
Emax (CfEcR-DEF mutant W238M; [2]): 100%
EC50 (CfEcR-DEF mutant M219K): 2.9 µM
Emax (CfEcR-DEF mutant M219K; [1]): 100%
EC50 (CfEcR-DEF mutant L223R): 8.69 µM
Emax (CfEcR-DEF mutant L223R; [1]): 100%
GS-E ligand max FI (relative to DMSO) (CfEcR-DEF mutant F109P): 1
Concentration (mM) at max FI (CfEcR-DEF mutant F109P; GS-E ligand): 10.00 mM
GS-E ligand max FI (relative to DMSO) (CfEcR-DEF mutant I51N): 1
Concentration (mM) at max FI (CfEcR-DEF mutant I51N; GS-E ligand): 33.30 mM
GS-E ligand max FI (relative to DMSO) (CfEcR-DEF mutant L132N): 785
Concentration (mM) at max FI (CfEcR-DEF mutant L132N; GS-E ligand): 33.30 mM

Cc1cc(C)cc(C(=O)N(NC(=O)c2cccc(C(C)C)c2C)C(C)(C)C)c1 [RG-102362, 3,5-Dimethyl-benzoic acid N-tert-butyl-N′-(3-isopropyl-2-methyl-benzoyl)-hydrazide]
melting point: 182.5 °C
